Source: ChEMBL document CHEMBL4507263, “Data for DCP probe BAY-474” (2021)

Experiments:
[1] = biological target: Activated CDC42 kinase 1 (Homo sapiens) (UniProt Q07912); assay: ACK1 (h) Millipore kinase activity assay; details: Compound concentration 1.0 uM
[2] = biological target: NUAK family SNF1-like kinase 1 (Homo sapiens) (UniProt O60285); assay: ARK5 (h) Millipore kinase activity assay; details: Compound concentration 1.0 uM
[3] = biological target: Proto-oncogene tyrosine-protein kinase Src (Homo sapiens) (UniProt P12931); assay: cSRC (h) Millipore kinase activity assay; details: Compound concentration 1.0 uM
[4] = biological target: Death-associated protein kinase 1 (Homo sapiens) (UniProt P53355); assay: DAPK1 (h) Millipore kinase activity assay; details: Compound concentration 1.0 uM
[5] = biological target: Tyrosine-protein kinase HCK (Homo sapiens) (UniProt P08631); assay: Hck (h) Millipore kinase activity assay; details: Compound concentration 1.0 uM
[6] = biological target: Homeodomain-interacting protein kinase 3 (Homo sapiens) (UniProt Q9H422); assay: HIPK3 (h) Millipore kinase activity assay; details: Compound concentration 1.0 uM
[7] = biological target: Mitogen-activated protein kinase 1 (Homo sapiens) (UniProt P28482); assay: MAPK1 (h) Millipore kinase activity assay; details: Compound concentration 1.0 uM
[8] = biological target: MAP kinase-activated protein kinase 3 (Homo sapiens) (UniProt Q16644); assay: MAPKAP-K3 (h) Millipore kinase activity assay; details: Compound concentration 1.0 uM
[9] = biological target: Serine/threonine-protein kinase PAK 3 (Homo sapiens) (UniProt O75914); assay: PAK3 (h) Millipore kinase activity assay; details: Compound concentration 1.0 uM
[10] = biological target: Platelet-derived growth factor receptor alpha (Homo sapiens) (UniProt P16234); assay: PDGFRalpha (h) Millipore kinase activity assay; details: Compound concentration 1.0 uM
[11] = biological target: Protein kinase C beta type (Homo sapiens) (UniProt P05771); assay: PKCbetaII (h) Millipore kinase activity assay; details: Compound concentration 1.0 uM
[12] = biological target: Protein kinase C eta type (Homo sapiens) (UniProt P24723); assay: PKCeta (h) Millipore kinase activity assay; details: Compound concentration 1.0 uM
[13] = biological target: Serine/threonine-protein kinase PLK2 (Homo sapiens) (UniProt Q9NYY3); assay: Snk (h) Millipore kinase activity assay; details: Compound concentration 1.0 uM
[14] = biological target: Glucocorticoid receptor (Homo sapiens) (UniProt P04150); assay: Glucocorticoid Eurofins-Panlabs radioligand binding assay; details: Compound concentration 10.0 uM
Mus musculus = species: Mus musculus; assay: Inhibition of Interleukin IL-1 at 10 µM in the Eurofins-Panlabs radioligand binding assay (Eurofins_assay_243520); set-up: ligand concentration 0.1 nM; details: Compound concentration 10.0 uM
Rattus norvegicus = species: Rattus norvegicus; assay: Inhibition of Rolipram at 10 µM in the Eurofins-Panlabs radioligand binding assay (Eurofins_assay_268811); type: protein assay; set-up: ligand concentration 1.8 nM; details: Compound concentration 10.0 uM
[15] = biological target: Histamine H3 receptor (Homo sapiens) (UniProt Q9Y5N1); details: Compound concentration 10.0 uM
[16] = system: Tyrosine-protein kinase ABL1 (Homo sapiens), P00519 [F317I]; details: Compound concentration 1000.0 nM
[17] = biological target: Tyrosine-protein kinase ABL1 (Homo sapiens) (UniProt P00519); details: Compound concentration 1000.0 nM
[18] = biological target: Tyrosine-protein kinase Blk (Homo sapiens) (UniProt P51451); details: Compound concentration 1000.0 nM
[19] = biological target: Calcium/calmodulin-dependent protein kinase type IV (Homo sapiens) (UniProt Q16566); details: Compound concentration 1000.0 nM
[20] = biological target: Cyclin-dependent kinase 11B (Homo sapiens) (UniProt P21127); details: Compound concentration 1000.0 nM
[21] = biological target: Cyclin-dependent kinase 4 (Homo sapiens) (UniProt P11802); details: Compound concentration 1000.0 nM
[22] = biological target: Cyclin-dependent kinase 4 (Homo sapiens) (UniProt P11802); details: Compound concentration 1000.0 nM; remark: listed apart in the source
[23] = biological target: Dual specificity protein kinase CLK1 (Homo sapiens) (UniProt P49759); details: Compound concentration 1000.0 nM
[24] = biological target: Casein kinase I isoform gamma-3 (Homo sapiens) (UniProt Q9Y6M4); details: Compound concentration 1000.0 nM
[25] = biological target: Dual specificity tyrosine-phosphorylation-regulated kinase 1B (Homo sapiens) (UniProt Q9Y463); details: Compound concentration 1000.0 nM
[26] = biological target: Ephrin type-A receptor 6 (Homo sapiens) (UniProt Q9UF33); details: Compound concentration 1000.0 nM
[27] = biological target: Receptor tyrosine-protein kinase erbB-2 (Homo sapiens) (UniProt P04626); details: Compound concentration 1000.0 nM
[28] = biological target: Cyclin-G-associated kinase (Homo sapiens) (UniProt O14976); details: Compound concentration 1000.0 nM
[29] = biological target: Mitogen-activated protein kinase 9 (Homo sapiens) (UniProt P45984); details: Compound concentration 1000.0 nM
[30] = biological target: Serine/threonine-protein kinase MAK (Homo sapiens) (UniProt P20794); details: Compound concentration 1000.0 nM
[31] = biological target: MAP kinase-activated protein kinase 2 (Homo sapiens) (UniProt P49137); details: Compound concentration 1000.0 nM
[32] = biological target: MAP kinase-interacting serine/threonine-protein kinase 2 (Homo sapiens) (UniProt Q9HBH9); details: Compound concentration 1000.0 nM
[33] = biological target: Mitogen-activated protein kinase kinase kinase 9 (Homo sapiens) (UniProt P80192); details: Compound concentration 1000.0 nM
[34] = biological target: Mitogen-activated protein kinase kinase kinase 10 (Homo sapiens) (UniProt Q02779); details: Compound concentration 1000.0 nM
[35] = biological target: Serine/threonine-protein kinase 3 (Homo sapiens) (UniProt Q13188); details: Compound concentration 1000.0 nM
[36] = biological target: Serine/threonine-protein kinase Nek7 (Homo sapiens) (UniProt Q8TDX7); details: Compound concentration 1000.0 nM
[37] = biological target: Serine/threonine-protein kinase PAK 6 (Homo sapiens) (UniProt Q9NQU5); details: Compound concentration 1000.0 nM
[38] = biological target: Cyclin-dependent kinase 18 (Homo sapiens) (UniProt Q07002); details: Compound concentration 1000.0 nM
[39] = biological target: Phosphatidylinositol 4,5-bisphosphate 3-kinase catalytic subunit alpha isoform (Homo sapiens) (UniProt P42336); details: Compound concentration 1000.0 nM
[40] = biological target: Phosphatidylinositol 4,5-bisphosphate 3-kinase catalytic subunit gamma isoform (Homo sapiens) (UniProt P48736); details: Compound concentration 1000.0 nM
[41] = biological target: Serine/threonine-protein kinase PLK3 (Homo sapiens) (UniProt Q9H4B4); details: Compound concentration 1000.0 nM
[42] = biological target: Non-receptor tyrosine-protein kinase TYK2 (Homo sapiens) (UniProt P29597); details: Compound concentration 1000.0 nM
[43] = biological target: GABA-A receptor; anion channel (Rattus norvegicus) (UniProt O09028+P15431+P18506+P18508+P19969+P20236+P23574+P23576+P28471+P28473+P30191+P62813+P63079+P63138+Q91ZM7+Q9ES14); details: Compound concentration 10.0 uM

Sequence of Cyclin-dependent kinase 4 (Homo sapiens) (P11802 whole entry): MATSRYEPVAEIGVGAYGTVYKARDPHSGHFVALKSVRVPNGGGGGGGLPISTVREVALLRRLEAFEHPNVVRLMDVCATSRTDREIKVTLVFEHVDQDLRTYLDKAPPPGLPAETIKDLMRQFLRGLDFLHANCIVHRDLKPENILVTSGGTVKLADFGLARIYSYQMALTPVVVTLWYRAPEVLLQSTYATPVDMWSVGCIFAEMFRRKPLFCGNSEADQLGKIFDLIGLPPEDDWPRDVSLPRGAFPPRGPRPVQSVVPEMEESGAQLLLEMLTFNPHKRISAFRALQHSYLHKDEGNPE
Sequence of Serine/threonine-protein kinase PLK2 (Homo sapiens) (Q9NYY3 whole entry, looked up): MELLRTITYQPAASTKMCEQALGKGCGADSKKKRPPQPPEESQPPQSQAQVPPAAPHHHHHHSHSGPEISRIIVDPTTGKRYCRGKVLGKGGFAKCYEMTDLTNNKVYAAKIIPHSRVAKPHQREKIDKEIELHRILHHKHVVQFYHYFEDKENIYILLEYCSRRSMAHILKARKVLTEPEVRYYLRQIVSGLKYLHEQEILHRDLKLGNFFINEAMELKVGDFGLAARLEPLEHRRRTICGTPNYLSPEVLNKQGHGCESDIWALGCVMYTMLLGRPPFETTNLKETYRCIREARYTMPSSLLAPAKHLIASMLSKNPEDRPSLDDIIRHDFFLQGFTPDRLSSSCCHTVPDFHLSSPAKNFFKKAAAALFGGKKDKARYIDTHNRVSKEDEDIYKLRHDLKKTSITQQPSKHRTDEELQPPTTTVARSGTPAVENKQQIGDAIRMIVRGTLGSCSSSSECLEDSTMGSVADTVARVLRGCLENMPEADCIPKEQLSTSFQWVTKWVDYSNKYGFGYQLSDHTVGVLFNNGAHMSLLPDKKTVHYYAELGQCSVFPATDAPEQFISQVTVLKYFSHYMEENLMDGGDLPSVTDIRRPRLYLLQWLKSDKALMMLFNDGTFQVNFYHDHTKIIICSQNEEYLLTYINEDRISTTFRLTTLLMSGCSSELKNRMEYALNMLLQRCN
Sequence of Homeodomain-interacting protein kinase 3 (Homo sapiens) (Q9H422 whole entry, looked up): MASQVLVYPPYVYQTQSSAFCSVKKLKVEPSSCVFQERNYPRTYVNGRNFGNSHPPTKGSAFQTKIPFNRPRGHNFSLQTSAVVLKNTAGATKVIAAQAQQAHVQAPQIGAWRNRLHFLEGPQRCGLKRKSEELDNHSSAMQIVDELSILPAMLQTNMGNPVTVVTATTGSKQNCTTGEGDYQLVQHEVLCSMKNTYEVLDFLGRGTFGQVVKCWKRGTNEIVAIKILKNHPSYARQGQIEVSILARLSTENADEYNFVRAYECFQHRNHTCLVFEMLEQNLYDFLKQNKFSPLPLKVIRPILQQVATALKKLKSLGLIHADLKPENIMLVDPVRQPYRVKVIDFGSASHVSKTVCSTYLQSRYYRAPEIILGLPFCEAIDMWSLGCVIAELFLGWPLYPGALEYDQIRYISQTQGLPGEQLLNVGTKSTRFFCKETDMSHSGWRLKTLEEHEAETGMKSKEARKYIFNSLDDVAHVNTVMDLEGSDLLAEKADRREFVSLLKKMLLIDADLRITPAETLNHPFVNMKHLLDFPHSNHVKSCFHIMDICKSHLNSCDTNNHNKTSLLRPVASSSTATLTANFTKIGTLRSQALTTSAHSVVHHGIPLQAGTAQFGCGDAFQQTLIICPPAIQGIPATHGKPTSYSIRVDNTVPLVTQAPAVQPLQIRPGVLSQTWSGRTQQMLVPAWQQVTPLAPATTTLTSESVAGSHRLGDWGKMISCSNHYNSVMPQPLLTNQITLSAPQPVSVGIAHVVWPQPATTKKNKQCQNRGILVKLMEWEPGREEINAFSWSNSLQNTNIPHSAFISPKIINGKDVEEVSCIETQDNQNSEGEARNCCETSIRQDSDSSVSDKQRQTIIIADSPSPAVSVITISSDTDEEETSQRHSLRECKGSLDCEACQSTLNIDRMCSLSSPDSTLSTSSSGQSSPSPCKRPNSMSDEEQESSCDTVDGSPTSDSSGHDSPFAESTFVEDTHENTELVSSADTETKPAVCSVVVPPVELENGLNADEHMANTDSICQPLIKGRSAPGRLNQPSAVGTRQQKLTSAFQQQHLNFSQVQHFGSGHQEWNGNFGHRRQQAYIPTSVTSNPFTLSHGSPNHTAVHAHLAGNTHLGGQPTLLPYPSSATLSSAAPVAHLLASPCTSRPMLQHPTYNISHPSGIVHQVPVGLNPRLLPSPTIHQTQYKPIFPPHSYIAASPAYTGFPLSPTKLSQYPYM
Sequence of NUAK family SNF1-like kinase 1 (Homo sapiens) (O60285 whole entry): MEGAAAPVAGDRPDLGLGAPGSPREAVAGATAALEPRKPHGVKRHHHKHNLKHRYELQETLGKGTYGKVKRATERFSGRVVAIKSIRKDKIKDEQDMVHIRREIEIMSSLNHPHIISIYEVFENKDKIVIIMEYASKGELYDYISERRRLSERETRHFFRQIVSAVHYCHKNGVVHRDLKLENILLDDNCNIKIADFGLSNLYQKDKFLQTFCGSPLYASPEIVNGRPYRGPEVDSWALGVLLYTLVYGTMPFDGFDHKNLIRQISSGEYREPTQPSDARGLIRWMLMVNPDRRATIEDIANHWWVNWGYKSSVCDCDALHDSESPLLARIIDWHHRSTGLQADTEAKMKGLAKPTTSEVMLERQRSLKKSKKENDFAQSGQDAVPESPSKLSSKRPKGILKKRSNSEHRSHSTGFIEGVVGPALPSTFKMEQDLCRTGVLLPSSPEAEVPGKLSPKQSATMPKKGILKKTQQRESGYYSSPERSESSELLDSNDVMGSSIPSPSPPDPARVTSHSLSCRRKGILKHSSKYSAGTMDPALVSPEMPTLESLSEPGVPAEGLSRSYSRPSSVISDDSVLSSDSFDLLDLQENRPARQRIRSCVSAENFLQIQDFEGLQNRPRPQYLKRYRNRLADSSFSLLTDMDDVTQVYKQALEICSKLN
Sequence of Protein kinase C eta type (Homo sapiens) (P24723 whole entry): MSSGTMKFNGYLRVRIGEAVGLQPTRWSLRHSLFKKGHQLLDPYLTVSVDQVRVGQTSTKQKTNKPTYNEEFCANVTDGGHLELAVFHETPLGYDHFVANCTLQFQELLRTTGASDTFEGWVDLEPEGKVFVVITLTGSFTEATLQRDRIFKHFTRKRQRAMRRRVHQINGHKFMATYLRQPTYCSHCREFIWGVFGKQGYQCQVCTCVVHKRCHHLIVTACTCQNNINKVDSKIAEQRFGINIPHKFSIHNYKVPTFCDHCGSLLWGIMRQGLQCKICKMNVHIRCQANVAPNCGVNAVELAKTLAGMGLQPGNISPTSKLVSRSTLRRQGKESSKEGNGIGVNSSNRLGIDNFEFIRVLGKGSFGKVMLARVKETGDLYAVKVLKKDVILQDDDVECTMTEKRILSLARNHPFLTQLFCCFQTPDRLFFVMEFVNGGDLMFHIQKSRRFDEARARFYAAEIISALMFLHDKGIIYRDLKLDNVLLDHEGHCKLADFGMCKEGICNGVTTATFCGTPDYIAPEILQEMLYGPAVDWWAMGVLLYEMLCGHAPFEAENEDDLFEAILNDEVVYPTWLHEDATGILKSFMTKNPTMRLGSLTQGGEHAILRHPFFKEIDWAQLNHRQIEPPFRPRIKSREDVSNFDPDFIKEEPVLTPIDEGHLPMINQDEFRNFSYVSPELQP
Sequence of Serine/threonine-protein kinase Nek7 (Homo sapiens) (Q8TDX7 whole entry, looked up): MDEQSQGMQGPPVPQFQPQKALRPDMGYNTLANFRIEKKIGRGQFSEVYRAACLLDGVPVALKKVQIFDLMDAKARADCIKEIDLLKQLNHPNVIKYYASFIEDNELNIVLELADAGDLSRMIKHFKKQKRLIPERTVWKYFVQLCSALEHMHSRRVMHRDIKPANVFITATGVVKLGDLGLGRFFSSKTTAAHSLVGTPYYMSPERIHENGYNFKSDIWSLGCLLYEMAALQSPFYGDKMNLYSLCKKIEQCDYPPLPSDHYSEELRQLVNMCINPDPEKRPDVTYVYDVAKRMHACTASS
Sequence of Cyclin-dependent kinase 18 (Homo sapiens) (Q07002 whole entry, canonical isoform): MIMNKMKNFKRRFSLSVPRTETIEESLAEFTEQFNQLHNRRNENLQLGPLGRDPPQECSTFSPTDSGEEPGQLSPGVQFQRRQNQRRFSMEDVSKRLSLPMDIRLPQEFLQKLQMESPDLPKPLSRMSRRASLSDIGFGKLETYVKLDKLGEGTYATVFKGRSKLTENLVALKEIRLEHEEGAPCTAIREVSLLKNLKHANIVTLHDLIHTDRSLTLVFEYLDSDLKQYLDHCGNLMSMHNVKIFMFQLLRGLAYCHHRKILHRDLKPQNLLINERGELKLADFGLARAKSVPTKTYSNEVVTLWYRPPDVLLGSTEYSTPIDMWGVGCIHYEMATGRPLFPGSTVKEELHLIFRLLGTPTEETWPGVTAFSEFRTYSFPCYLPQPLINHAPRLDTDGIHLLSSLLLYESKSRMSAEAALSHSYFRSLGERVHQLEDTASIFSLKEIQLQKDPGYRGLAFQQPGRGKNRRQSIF
Sequence of MAP kinase-activated protein kinase 2 (Homo sapiens) (P49137 whole entry, looked up): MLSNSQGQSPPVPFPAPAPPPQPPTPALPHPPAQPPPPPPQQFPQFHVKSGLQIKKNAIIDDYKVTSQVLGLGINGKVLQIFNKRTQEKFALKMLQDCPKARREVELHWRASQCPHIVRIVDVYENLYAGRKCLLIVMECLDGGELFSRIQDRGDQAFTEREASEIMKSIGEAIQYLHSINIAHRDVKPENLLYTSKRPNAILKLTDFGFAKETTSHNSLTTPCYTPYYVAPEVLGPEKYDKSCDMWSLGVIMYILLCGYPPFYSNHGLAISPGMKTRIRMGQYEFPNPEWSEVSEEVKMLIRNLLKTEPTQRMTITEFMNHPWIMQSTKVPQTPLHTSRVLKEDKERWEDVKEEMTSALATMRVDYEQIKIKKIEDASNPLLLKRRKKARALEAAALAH

CC1=C(C#N)C(c2ccc3[nH]nc(C)c3c2)C(C#N)=C(C)N1 [BAY-474]
inhibition [1]: 2%
inhibition [2]: 22%
inhibition [3]: 8%
inhibition [4]: 0%
inhibition [5]: 16%
inhibition [6]: -4%
inhibition [7]: 4%
inhibition [8]: -5%
inhibition [9]: -8%
inhibition [10]: -2%
inhibition [11]: 7%
inhibition [12]: -3%
inhibition [13]: 3%
inhibition [14]: 12%
inhibition (Mus musculus): 0%
inhibition (Rattus norvegicus): 10%
inhibition [15]: -6%

CC1=C(C#N)[C@@H](c2ccc3[nH]nc(C)c3c2)C(C#N)=C(c2ccc(Cl)cc2)N1 [BAY-827]
residual activity [16]: 100%
residual activity [17]: 52.6%
residual activity [18]: 100%
residual activity [19]: 31.8%
residual activity [20]: 91.6%
residual activity [21]: 78.8%
residual activity [22]: 96.1%
residual activity [23]: 100%
residual activity [24]: 100%
residual activity [25]: 50.1%
residual activity [26]: 100%
residual activity [27]: 100%
residual activity [28]: 100%
residual activity [29]: 89.5%
residual activity [30]: 85.1%
residual activity [31]: 100%
residual activity [32]: 90.6%
residual activity [33]: 90.4%
residual activity [34]: 100%
residual activity [35]: 100%
residual activity [36]: 87.4%
residual activity [37]: 100%
residual activity [38]: 100%
residual activity [39]: 100%
residual activity [40]: 100%
residual activity [41]: 77.5%
residual activity [42]: 73.1%
inhibition [43]: -7.24%
